Laboratory results published in US20260217708A1, “FUSED BENZAZEPINE DERIVATIVES FOR USE IN THE TREATMENT OF CANCER AND EPILEPSY” (UCB BIOPHARMA SRL, priority 2023, published 2026).

How the values were obtained:
[1] = target: T1, system Xc^− (Homo sapiens, UniProt Q9UPY5); experiment: Cystine-induced glutamate release assay; assay type: cell-based; parameters: endogenous in cells; host or cells: H4 cells; conditions: H4 cells, sodium-free HEPES buffer, 50 μM L-Cystine, 2 hours, Amplex Red glutamate readout; for IC50: read-out: pIC50 Cystine-induced glutamate release assay (converted)
T1 sequence (Q9UPY5 1-501): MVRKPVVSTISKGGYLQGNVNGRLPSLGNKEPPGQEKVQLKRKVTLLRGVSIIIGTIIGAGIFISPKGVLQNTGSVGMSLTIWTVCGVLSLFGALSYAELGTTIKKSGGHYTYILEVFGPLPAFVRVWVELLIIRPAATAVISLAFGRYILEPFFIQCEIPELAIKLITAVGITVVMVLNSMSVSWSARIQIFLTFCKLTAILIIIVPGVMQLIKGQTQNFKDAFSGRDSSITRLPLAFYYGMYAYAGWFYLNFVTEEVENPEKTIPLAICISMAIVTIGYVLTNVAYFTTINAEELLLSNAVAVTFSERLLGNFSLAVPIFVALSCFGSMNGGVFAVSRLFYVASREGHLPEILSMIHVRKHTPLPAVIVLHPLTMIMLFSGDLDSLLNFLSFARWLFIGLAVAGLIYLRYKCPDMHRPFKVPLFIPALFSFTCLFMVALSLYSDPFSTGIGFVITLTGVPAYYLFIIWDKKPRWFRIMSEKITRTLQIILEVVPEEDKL
T1 sequence (P08195 1-529 partner): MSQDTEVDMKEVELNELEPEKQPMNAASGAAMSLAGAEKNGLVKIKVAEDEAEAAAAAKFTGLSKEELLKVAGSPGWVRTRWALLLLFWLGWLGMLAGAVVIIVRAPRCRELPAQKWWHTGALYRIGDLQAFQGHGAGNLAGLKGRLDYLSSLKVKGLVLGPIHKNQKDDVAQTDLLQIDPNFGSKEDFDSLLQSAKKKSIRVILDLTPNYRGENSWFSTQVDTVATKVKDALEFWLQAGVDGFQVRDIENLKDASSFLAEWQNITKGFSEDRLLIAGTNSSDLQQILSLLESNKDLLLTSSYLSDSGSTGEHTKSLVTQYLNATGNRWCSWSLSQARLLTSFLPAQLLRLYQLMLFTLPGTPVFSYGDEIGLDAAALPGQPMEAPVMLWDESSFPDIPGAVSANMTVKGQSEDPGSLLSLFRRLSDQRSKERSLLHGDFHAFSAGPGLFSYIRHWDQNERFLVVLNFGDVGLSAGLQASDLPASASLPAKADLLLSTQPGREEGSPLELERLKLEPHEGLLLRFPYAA
Source text: (§1) The effect of compounds of Formula (I) on the system Xc^− functionality was examined in two independent cell assays: (i) measurement of cystine-induced glutamate release; and (ii) measurement of [^14C]L-Cystine uptake.
(§2) As described above, System Xc^−, also known as the cystine/glutamate antiporter, is an amino acid transporter that mediates the extrusion of intracellular L-glutamate outside the cell and the uptake of extracellular L-cystine into the cell.
(§3) By measuring respectively, the concentration of glutamate released outside the cell and the L-cystine uptaken in the cell, with increasing concentrations of compounds of formula (I) according to the present invention, the efficacy of said compounds to inhibit the System Xc^− function can be evaluated.
(§4) The efficacy of the compounds to inhibit system Xc^− is represented by measuring the IC50 which corresponds to the concentration of compound necessary to inhibit 50% of the signals from the two control groups; DMSO 1% and Erastin 50 μM in the respective assays. pIC50 values correspond to −log of the IC50 in Molar.
Measurement of cystine-induced glutamate release indicates levels of glutamate (outside of the cell) that are dependent on system Xc^− antiporter function. Upon the addition of L-Cystine to H4 cells, intracellular glutamate is counter-transported and exported in the supernatant.
In this assay, the medium is devoid of sodium to prevent the transport of glutamate by sodium-dependent excitatory amino acid transporters (EAATs). H4 cells were plated on 384-well culture plate at 1×10^4 cells/well in Dulbecco's Modified Eagle Medium (DMEM) with L-glutamine, penicillin/streptomycin and 10% fetal bovine serum (all from ThermoFisher Scientific) and incubated in a humidified CO2 incubator at 37° C. After 2 days, cells were washed 4 times with prewarmed sodium-free HEPES buffer (contents in mM: HEPES 10, KCl 5.4, CaCl2 2.5, MgCl2 1, KH2PO4 0.4, D-Glucose 5, Choline chloride 140), pH 7.4. Glutamate release was induced by addition of 50 μM of L-Cystine (Sigma-Aldrich), together with a test compound of Formula (I) at 1% final DMSO concentration. After 2 hours of incubation in the culture incubator, supernatants were transferred to a low-binding polypropylene 384-well plate to determine L-glutamate concentration using Amplex™ Red Glutamic Acid Assay Kit (ThermoFisher Scientific). Briefly, 10 μL of Amplex™ Red working solution was added to 10 μL of the supernatant, then the mixture was incubated for 30 min at 37° C. Fluorescence intensity was measured by EnVision microplate reader (PerkinElmer).

[2] = target: T1, system Xc^−; experiment: [^14C]L-Cystine uptake assay; assay type: cell-based; parameters: endogenous in cells; host or cells: H4 cells; conditions: H4 cells, sodium-free HEPES buffer, 0.5 μM L-[14C]Cystine and 4.5 μM L-Cystine, 1 hour at 37° C.; for IC50: read-out: pIC50 [^14C] L-Cystine uptake assay (converted)
Source text: as §1, §2, §3, §4
In this assay, the medium is devoid of sodium to prevent the transport of glutamate by sodium-dependent excitatory amino acid transporters (EAATs). H4 cells were plated on a 96-well CytoStar-T scintillating microplate (PerkinElmer) at 5×10^4 cells/well in the medium described above. After 1 day, cells were washed one time with the sodium-free HEPES buffer and preincubated with test compounds of Formula (I) (1% final DMSO) for 15 min. Uptake was initiated by adding 0.5 μM L-[1,2, 1′,2′-^14C]Cystine (0.02 mCi/mL, PerkinElmer, Waltham, US) and 4.5 μM L-Cystine (Sigma-Aldrich). After 1 hour at 37° C., plates were counted in a MicroBeta^2 microplate counter (PerkinElmer).

| Compound | IC50 [1] [nM] | IC50 [2] [nM] | pIC50 Cystine-induced glutamate release assay [1] | pIC50 [^14C] L-Cystine uptake assay [2] |
| --- | --- | --- | --- | --- |
| Cc1cc2c(c(F)n1)-c1cccnc1[C@@H](C)C(=O)N2CC(=O)Nc1ccc(C2CC2)cc1 [#142, N-(4-cyclopropylphenyl)-2-[(10R)-3-fluoro-5,10-dimethyl-9-oxo-4,8,12-triazatricyclo[9.4.0.0^2,7]pentadeca-1(11),2(7),3,5,12,14-hexaen-8-yl]acetamide] | 15.8 to 39.8 | < 15.8 | – | – |
| Cc1cc2c(c(C)n1)-c1cccnc1CC(=O)N2CC(=O)Nc1ccc(C2CC2)cc1 [#58, N-(4-cyclopropylphenyl)-2-(3,5-dimethyl-9-oxo-4,8,12-triazatricyclo[9.4.0.0^2,7]pentadeca-1(11),2(7),3,5,12,14-hexaen-8-yl)acetamide] | 39.8 to 100 | 100 to 501 | – | – |
| Cc1cc2c(c(C(F)F)n1)-c1ccccc1CC(=O)N2CC(=O)Nc1ccc(C(F)(F)F)cc1 (single isomer, unassigned) [#194, Atropisomer aR or aS of 2-[1-(difluoromethyl)-3-methyl-6-oxo-7H-pyrido[4,3-d][3]benzazepin-5-yl]-N-[4-(trifluoromethyl)phenyl]acetamide] | – | – | C (about 7.40 < pIC50 ≤ about 7.80) | D (plC50 > about 7.80) |
| N#Cc1cc2c(cc1F)-c1cccnc1CC(=O)N2CC(=O)Nc1ccc(C(F)(F)F)cc1 [#69, 2-(9-cyano-10-fluoro-6-oxo-5H-pyrido[2,3-d][1]benzazepin-7-yl)-N-[4-(trifluoromethyl)-phenyl]acetamide] | 39.8 to 100 | 15.8 to 39.8 | – | – |
| Cc1cc2c(c(F)n1)-c1cccnc1C(CO)C(=O)N2CC(=O)Nc1ccc(C(F)F)cc1 (single isomer, unassigned) [#222, Enantiomer (10S) or (10R) of N-[4-(difluoromethyl)phenyl]-2-[3-fluoro-10-(hydroxymethyl)-5-methyl-9-oxo-4,8,12-triazatricyclo[9.4.0.0^2,7]pentadeca-1(15),2(7),3,5,11,13-hexaen-8-yl]acetamide] | 15.8 to 39.8 | 39.8 to 100 | – | – |
| Cc1cc2c(c(F)n1)-c1cccnc1C(CO)C(=O)N2CC(=O)Nc1ccc(C(F)(F)F)cc1 (stereo not shown) [#152, 2-[3-fluoro-10-(hydroxymethyl)-5-methyl-9-oxo-4,8,12-triazatricyclo[9.4.0.0^2,7]pentadeca-1(11),2(7),3,5,12,14-hexaen-8-yl]-N-[4-(trifluoromethyl)phenyl]acetamide] | 39.8 to 100 | 15.8 to 39.8 | – | – |
| COc1nc(C)cc2c1-c1cc(C)nn1CC(=O)N2CC(=O)Nc1ccc(C(F)(F)F)cc1 [#104, 2-(14-methoxy-4,12-dimethyl-8-oxo-5,6,9,13-tetrazatricyclo[8.4.0.0^2,6]tetradeca-1(14),2,4,10,12-pentaen-9-yl)-N-[4-(trifluoromethyl)phenyl]acetamide] | 39.8 to 100 | 39.8 to 100 | – | – |

Continued, in another order:

| IC50 [1] [nM] | IC50 [2] [nM] | Compound | pIC50 Cystine-induced glutamate release assay [1] | pIC50 [^14C] L-Cystine uptake assay [2] |
| --- | --- | --- | --- | --- |
| < 15.8 | < 15.8 | Cc1cc2c(c(Cl)n1)-c1cccnc1C(C)C(=O)N2CC(=O)Nc1ccc(C(F)(F)F)cc1F (single isomer, unassigned) [#225, Enantiomer (10S) or (10R) of N-[2-fluoro-4-(trifluoromethyl)phenyl]-2-[3-chloro-5,10-dimethyl-9-oxo-4,8,12-triazatricyclo[9.4.0.0^2,7]pentadeca-1(11),2(7),3,5,12,14-hexaen-8-yl]acetamide] | – | – |
| 15.8 to 39.8 | 15.8 to 39.8 | CC1C(=O)N(CC(=O)Nc2ccc(C(F)F)cc2)c2cc(C#N)cc(F)c2-c2cccnc21 (single isomer, unassigned) [#309, 2-[9-cyano-11-fluoro-5-methyl-6-oxo-5H-pyrido[2,3-d][1]benzazepin-7-yl]-N-[4-(difluoromethyl)phenyl]acetamide] | – | – |
| < 15.8 | < 15.8 | COc1cc2c(c(C)n1)-c1cccnc1C(C)C(=O)N2CC(=O)Nc1ccc(C(F)F)cc1 (single isomer, unassigned) [#299, N-[4-(difluoromethyl)phenyl]-2-[5-methoxy-3,10-dimethyl-9-oxo-4,8,12-triazatricyclo[9.4.0.0^2,7]pentadeca-1(15),2(7),3,5,11,13-hexaen-8-yl]acetamide] | – | – |
| < 15.8 | < 15.8 | COc1nccc2c1-c1cccnc1C(C)C(=O)N2CC(=O)Nc1ccc(C(F)F)cc1 (single isomer, unassigned) [#298, N-[4-(difluoromethyl)phenyl]-2-[3-methoxy-10-methyl-9-oxo-4,8,12-triazatricyclo[9.4.0.0^2,7]pentadeca-1(15),2(7),3,5,11,13-hexaen-8-yl]acetamide] | – | – |
| < 15.8 | < 15.8 | C[C@H]1C(=O)N(CC(=O)Nc2ccc(C(F)F)cc2)c2cc(N3CC[C@H](O)C3)nc(F)c2-c2cccnc21 (single isomer, unassigned) [#279, N-[4-(difluoromethyl)phenyl]-2-[3-fluoro-5-[3-hydroxypyrrolidin-1-yl]-10-methyl-9-oxo-4,8,12-triazatricyclo[9.4.0.0^2,7]pentadeca-1(15),2,4,6,11,13-hexaen-8-yl]acetamide] | – | – |
| < 15.8 | < 15.8 | C[C@@H]1C(=O)N(CC(=O)Nc2ccc(C(F)F)cc2)c2cc(N3CC[C@@H](F)C3)nc(F)c2-c2cccnc21 (single isomer, unassigned) [#276, N-[4-(difluoromethyl)phenyl]-2-[3-fluoro-5-[3-fluoropyrrolidin-1-yl]-10-methyl-9-oxo-4,8,12-triazatricyclo[9.4.0.0^2,7]pentadeca-1(15),2,4,6,11,13-hexaen-8-yl]acetamide] | – | – |
| < 15.8 | < 15.8 | Cc1cc2c(cc1C#N)-c1cc(F)cnc1C(C)C(=O)N2CC(=O)Nc1ccc(C(F)F)cc1 (single isomer, unassigned) [#420, 2-[10-cyano-2-fluoro-5,9-dimethyl-6-oxo-5H-pyrido[2,3-d][1]benzazepin-7-yl]-N-[4-(difluoromethyl)phenyl]acetamide] | – | – |
